Assay results as given in patent US9936724B2, “Sweetener compositions” (Givaudan, S.A., priority 2014, dated 2018).
Peptide text beside a SMILES is read from it.

What was measured:
[1] = Masking of off-notes of high-intensity sweeteners (comparison of dihydrochalcones); conditions: used at soluble concentrations
[2] = Solubility in water at room temperature; format: physicochemical; conditions: for solubility: in water at room temperature; for solubility in water, comparison in words: compared with other dihydrochalcones / with 3-phenyl-1-(2,4,6-trimethoxyphenyl)propan-1-one
[3] = relative to sucrose; cited from earlier work

With COc1ccc(CCC(=O)c2c(O)cc(OC)cc2OC)cc1 [1-(2-hydroxy-4,6-dimethoxyphenyl)-3-(4-methoxyphenyl)propan-1-one] the “masking properties / masking effect” value [1] was “significantly lower masking effect” and the solubility [2] was “below 5 ppm”.

In the case of thaumatin, the “times sweeter than sucrose” value [3] is listed as “about 2 000 times”.

For COC(=O)[C@H](Cc1ccccc1)NC(=O)[C@@H](N)CC(=O)O [Aspartame] (H-Asp-Phe-OMe), the “times sweeter than sucrose” value [3] is listed as 160-200 times.

In the case of OC[C@H]1O[C@H](O[C@]2(CCl)O[C@H](CCl)[C@@H](O)[C@@H]2O)[C@H](O)[C@@H](O)[C@H]1Cl [sucralose], the “times sweeter than sucrose” value [3] is given as “about 600 times”.

For O=C(CCc1ccc(O)cc1)c1c(O)cc(O)cc1O [phloretin, 3-(4-hydroxyphenyl)-1-(2,4,6-trihydroxyphenyl)propan-1-one], the “masking properties / masking effect” value [1] was “did not provide masking properties” and the “solubility in water, comparison in words” value [2] was “soluble to a similar extent”.

In the case of O=S(=O)([O-])NC1CCCCC1.[Na+] [sodium cyclamate], the “times sweeter than sucrose” value [3] is listed as “about 30 times”.

In the case of COc1cc(OC)c(C(=O)CCc2ccccc2)c(OC)c1 [3-phenyl-1-(2,4,6-trimethoxy-phenyl)propan-1-one], the “masking properties / masking effect” value [1] is reported as “particularly good masking properties”, the solubility [2] is reported as “greater than 30 ppm” and the “solubility in water, comparison in words” value [2] is reported as “much higher solubility in water than other dihydrochalcones”.
